Data: patent US7230011B2, “Benzenesulfonic acid indol-5-yl esters as antagonists of the 5ht6 receptor” (Eli Lilly and Company, priority 2002, dated 2007)
Where a name gives a salt, the structure may show the parent alone.

Structure (SMILES) | melting point
CN1CCC(c2c[nH]c3ccc(OS(=O)(=O)c4ccc([N+](=O)[O-])cc4)cc23)CC1 [Example 43, 4-Nitrobenzenesulfonic acid 3-(1-methylpiperidin-4-yl)-1H-indol-5-yl ester] | 171 to 172 °C
CCCn1cc(C2=CCN(C)CC2)c2cc(OS(=O)(=O)c3ccccc3)ccc21 (as salt: hydrochloride) | 170 to 174 °C
CN1CCC(c2c[nH]c3ccc(OS(=O)(=O)c4ccccc4F)cc23)CC1 [Example 40, 2-Fluorobenzenesulfonic acid 3-(1-methylpiperidin-4-yl)-1H-indol-5-yl ester] | 180 to 182 °C
CN1CCC(c2c[nH]c3ccc(OS(=O)(=O)c4ccc(NS(C)(=O)=O)cc4)cc23)CC1.Cl | 238 °C (dec.)
Cc1cc(OS(=O)(=O)c2c(F)cccc2F)cc2c(C3CCN(C)CC3)cn(Cc3ccccc3)c12 [Example 59, 2,6-Difluorobenzenesulfonic acid 1-benzyl-7-methyl-3-(1-methylpiperidin-4-yl)-1H-indol-5-yl ester] | 158 °C
CN1CCC(c2cn(Cc3ccc(F)cc3)c3ccc(OS(=O)(=O)c4c(F)cccc4F)cc23)CC1.Cl | 114 to 118 °C
CN1CCC(c2c3n(c4ccc(OS(=O)(=O)c5c(F)cccc5F)cc24)CCC3)CC1.Cl | 149 °C
CN1CCC(c2c[nH]c3ccc(OS(=O)(=O)c4c(F)cccc4F)cc23)CC1 [Example 42, 2,6-Difluorobenzenesulfonic acid 3-(1-methylpiperidin-4-yl)-1H-indol-5-yl ester] | 214 to 215 °C
CN1CCC(c2c[nH]c3ccc(OS(=O)(=O)c4c(F)cccc4F)cc23)CC1 [47] | 235 to 238 °C
Cc1ccc(S(=O)(=O)Oc2ccc3[nH]cc(C4CCN(C)CC4)c3c2)cc1 [Example 39, 4-Methylphenylsulfonic acid 3-(1-methylpiperidin-4-yl)-1H-indol-5-yl ester] | 186 to 187 °C
COc1ccc(S(=O)(=O)Oc2ccc3[nH]cc(C4CCN(C)CC4)c3c2)cc1 [Example 38, 4-Methoxybenzenesulfonic acid 3-(1-methylpiperidin-4-yl)-1H-indol-5-yl ester] | 186 to 187 °C
CN1CCC(c2c[nH]c3ccc(OS(=O)(=O)c4ccc(F)c(F)c4F)cc23)CC1 [Example 41, 2,3,4-Trifluorobenzenesulfonic acid 3-(1-methylpiperidin-4-yl)-1H-indol-5-yl ester] | 160 to 162 °C
CN1CCC(c2c[nH]c3ccc(OS(=O)(=O)c4ccc(F)cc4)cc23)CC1 [Example 51, 4-Fluorobenzenesulfonic acid 3-(1-methylpiperidin-4-yl)-1H-indol-5-yl ester] | 170 to 172 °C
CN1CC=C(c2c[nH]c3ccc(OS(=O)(=O)c4c(F)cccc4F)cc23)CC1 | 183 °C (dec.)
CN1CCC(c2cn(Cc3ccc(F)cc3)c3ccc(OS(=O)(=O)c4ccccc4)cc23)CC1.Cl | 169 to 172 °C
CN1CCC(c2c[nH]c3cc(F)c(OS(=O)(=O)c4c(F)cccc4F)cc23)CC1 [Example 32, 2,6-Difluorobenzenesulfonic acid 6-fluoro-3-(1-methylpiperidin-4-yl)-1H-indol-5-yl ester] | 202 °C
CN1CCC(c2cn(Cc3cccc(F)c3)c3ccc(OS(=O)(=O)c4ccccc4)cc23)CC1.Cl | 103 to 105 °C
Cc1cc(OS(=O)(=O)c2c(F)cccc2F)cc2c(C3CCN(C)CC3)cn(C)c12 [Example 56, 2,6-Difluorobenzenesulfonic acid 1,7-dimethyl-3-(1-methylpiperidin-4-yl)-1H-indol-5-yl ester] | 139 °C
CN1CCC(c2cn(CCCCc3ccccc3)c3ccc(OS(=O)(=O)c4ccccc4)cc23)CC1.Cl | 158 to 161 °C
CN1CCC(c2c3n(c4ccc(OS(=O)(=O)c5ccccc5)cc24)CCC3)CC1.Cl | 202 to 204 °C
CN1CCC(c2cn(Cc3ccccc3)c3ccc(OS(=O)(=O)c4c(F)cccc4F)cc23)CC1.Cl | 225 to 227 °C
CN1CCC(c2cn(CCc3ccccc3)c3ccc(OS(=O)(=O)c4c(F)cccc4F)cc23)CC1.Cl | 209 to 212 °C
Cc1cc(OS(=O)(=O)c2c(Cl)cccc2Cl)cc2c(C3CCN(C)CC3)c[nH]c12 [Example 63, 2,6-Dichlorobenzenesulfonic Acid 7-methyl-3-(1-methylpiperidin-4-yl)-1H-indol-5-yl Ester] | 179 °C

Other lines, results leading:

melting point | Structure (SMILES)
161 to 165 °C | CCn1cc(C2CCN(C)CC2)c2cc(OS(=O)(=O)c3c(F)cccc3F)ccc21.O=C(O)C(=O)O
134 to 138 °C | CC(C)S(=O)(=O)n1cc(C2CCN(C)CC2)c2cc(OS(=O)(=O)c3ccccc3)ccc21.O=C(O)C(=O)O
181 to 184 °C | CN1CCC(c2cn(Cc3ccc(F)cc3)c3ccc(OS(=O)(=O)c4ccccc4)cc23)CC1.O=C(O)C(=O)O
192 to 194 °C | CN1CCC(c2c[nH]c3ccc(OS(=O)(=O)c4ccccc4)cc23)CC1 [Example 34, Benzenesulfonic acid 3-(1-methylpiperidin-4-yl)-1H-indol-5-yl ester]
222 to 224 °C | CN1CCC(c2cn(Cc3ccccc3F)c3ccc(OS(=O)(=O)c4ccccc4)cc23)CC1.Cl
208 to 212 °C | CN1CCC(c2cn(CCc3ccccc3)c3ccc(OS(=O)(=O)c4ccccc4)cc23)CC1.O=C(O)C(=O)O
189 to 194 °C | CN1CCC(c2c[nH]c3ccc(OS(=O)(=O)c4ccccc4)cc23)CC1 [Example 45, Benzenesulfonic acid 3-(1-methylpiperidin-4-yl)-1H-indol-5-yl ester]
188 to 191 °C | CC(C)Cn1cc(C2CCN(C)CC2)c2cc(OS(=O)(=O)c3ccccc3)ccc21.Cl
121 to 126 °C | CCS(=O)(=O)n1cc(C2CCN(C)CC2)c2cc(OS(=O)(=O)c3ccccc3)ccc21.O=C(O)C(=O)O
194 to 197 °C | CCCn1cc(C2CCN(C)CC2)c2cc(OS(=O)(=O)c3ccccc3)ccc21.Cl
188 to 191 °C | CN1CCC(c2cn(CCCc3ccccc3)c3ccc(OS(=O)(=O)c4ccccc4)cc23)CC1.O=C(O)C(=O)O
127 to 130 °C | CCn1cc(C2CCN(C)CC2)c2cc(OS(=O)(=O)c3ccccc3)ccc21.O=C(O)C(=O)O
120 to 124 °C | CN1CCC(c2cn(S(=O)(=O)Cc3ccccc3)c3ccc(OS(=O)(=O)c4ccccc4)cc23)CC1.O=C(O)C(=O)O
139 to 142 °C | CCCS(=O)(=O)n1cc(C2CCN(C)CC2)c2cc(OS(=O)(=O)c3ccccc3)ccc21.O=C(O)C(=O)O
202 to 205 °C | CN1CCC(c2cn(C3CCCC3)c3ccc(OS(=O)(=O)c4ccccc4)cc23)CC1.O=C(O)C(=O)O
121 to 125 °C | CN1CCC(c2cn(S(=O)(=O)c3cccc4ccccc34)c3ccc(OS(=O)(=O)c4ccccc4)cc23)CC1.O=C(O)C(=O)O
169 to 172 °C | CCCCn1cc(C2CCN(C)CC2)c2cc(OS(=O)(=O)c3ccccc3)ccc21.Cl
185 to 189 °C | CCCn1cc(C2CCN(C)CC2)c2cc(OS(=O)(=O)c3c(F)cccc3F)ccc21.O=C(O)C(=O)O
193 to 198 °C | CCCCn1cc(C2CCN(C)CC2)c2cc(OS(=O)(=O)c3ccccc3)ccc21.O=C(O)C(=O)O
205 to 208 °C | CN1CCC(c2cn(Cc3ccccc3)c3ccc(OS(=O)(=O)c4c(F)cccc4F)cc23)CC1.O=C(O)C(=O)O
